Test system: Ramos cells
Test: Cytotoxicity in Ramos cells (cell death)
Type: cell-based
Protocol: The compounds listed in Table 7 were tested for cytotoxicity in Ramos cells. The assay was conducted as described in K. M. Johnson et al. Chemistry & Biology 2005, 12, 485-496.

Compound | EC50 [µM]
CC(C)(C)c1ccccc1NC(=NC(=O)c1cccc(C#N)c1)Nc1ccc2[nH]c(=O)oc2c1 [Compound I-100] | < 10
CC(C)(C)c1cccc(NC(=NC(=O)c2ccc(C(F)(F)F)cc2)Nc2ccc3[nH]c(=O)oc3c2)c1 [Compound I-120] | < 10
CC(C)(C)c1ccccc1NC(=NC(=O)c1ccc(C(F)(F)F)c(F)c1)Nc1ccc2oc(=O)[nH]c2c1 [Compound I-131] | < 10
O=C(N=C(Nc1cccc(C(F)(F)F)c1)Nc1ccc2[nH]ncc2c1)c1ccc(C(F)(F)F)cc1 [II-17] | < 10
O=C(N=C(Nc1ccc(-c2ccccc2)cc1)Nc1ccc2[nH]c(=O)[nH]c2c1)c1ccc(Cl)cc1 [Compound I-14] | > 10
N#Cc1cccc(C(=O)N=C(Nc2ccc(C(F)(F)F)cc2)Nc2ccc3[nH]c(=O)oc3c2)c1 [Compound I-118] | > 10
O=C(N=C(Nc1ccc2[nH]ncc2c1)Nc1ccccc1C(F)(F)F)c1ccc(Br)cc1 [II-1] | < 10
O=C(N=C(Nc1cccc(Cl)c1)Nc1ccc2[nH]ncc2c1)c1ccc(C(F)(F)F)cc1 [II-20] | < 10
O=C(N=C(Nc1ccc2ccccc2c1)Nc1ccc2[nH]c(=O)[nH]c2c1)c1ccc(Br)cc1 [Compound I-9] | > 10
CC(C)(C)c1ccccc1NC(=NC(=O)c1ccc(Br)cc1)Nc1ccc2[nH]c(=O)oc2c1 [Compound I-21] | < 10
N#Cc1cccc(C(=O)N=C(Nc2cccc(C(F)(F)F)c2)Nc2ccc3[nH]c(=O)oc3c2)c1 [Compound I-102] | < 10
O=C(N=C(Nc1ccc(-c2ccccc2)cc1)Nc1ccc2[nH]c(=O)oc2c1)c1ccc(F)cc1 [Compound I-32] | < 10
O=C(N=C(Nc1ccc(-c2ccccc2)cc1)Nc1ccc2[nH]ncc2c1)c1cccc(Cl)c1 [II-15] | < 10
N#Cc1cccc(C(=O)N=C(Nc2cccc(C(F)(F)F)c2)Nc2ccc3oc(=O)[nH]c3c2)c1 [Compound I-133] | > 10
N#Cc1ccc(C(=O)N=C(Nc2ccc3[nH]c(=O)oc3c2)Nc2ccccc2C(F)(F)F)cc1 [Compound I-104] | < 10
O=C(N=C(Nc1ccc(Cl)cc1)Nc1ccc2[nH]c(=O)oc2c1)c1ccc(C(F)(F)F)cc1 [Compound I-87] | < 10
O=C(N=C(Nc1cccc(C2CC2)c1)Nc1ccc2oc(=O)[nH]c2c1)c1ccc(C(F)(F)F)cc1 [Compound I-135] | > 10
CC(C)(C)c1ccccc1NC(=NC(=O)c1ccc(C(F)(F)F)cc1)Nc1ccc2oc(=O)[nH]c2c1 [Compound I-129] | < 10
CC(C)(C)c1ccccc1NC(=NC(=O)c1ccc(C(F)(F)F)c(F)c1)Nc1ccc2[nH]c(=O)oc2c1 [Compound I-106] | < 10
O=C(N=C(Nc1cc(F)cc(Cl)c1)Nc1ccc2[nH]c(=O)oc2c1)c1ccc(C(F)(F)F)cc1 [Compound I-94] | < 10
O=C(N=C(NCCc1c[nH]cn1)Nc1ccccc1C(F)(F)F)c1ccc(Cl)cc1 [III-2] | > 10
O=C(N=C(NCCc1c[nH]cn1)Nc1ccccc1C(F)(F)F)c1ccc(Br)cc1 [III-1] | > 10
O=C(N=C(Nc1ccc2[nH]c(=O)oc2c1)Nc1ccccc1C(F)(F)F)c1cccc(Cl)c1 [Compound I-19] | < 10
O=C(N=C(Nc1cc(Cl)cc(Cl)c1)Nc1ccc2[nH]c(=O)oc2c1)c1ccc(C(F)(F)F)cc1 [Compound I-125] | < 10
O=C(N=C(Nc1ccc2[nH]c(=O)oc2c1)Nc1ccccc1Cl)c1ccc(C(F)(F)F)cc1 [Compound I-93] | < 10
CC(C)(C)c1ccccc1NC(=NC(=O)c1ccc(Br)cc1)Nc1ccc2[nH]ncc2c1 [II-5] | < 10
O=C(N=C(Nc1ccc(-c2ccccc2)cc1)Nc1ccc2[nH]ncc2c1)c1ccc(F)cc1 [II-16] | < 10

Compound | EC50 [µM]
Cn1c(=O)oc2cc(NC(=NC(=O)c3ccc(C(F)(F)F)cc3)Nc3ccccc3C(C)(C)C)ccc21 [Compound I-134] | > 10
O=C(N=C(Nc1ccc(-c2ccccc2)cc1)Nc1ccc2[nH]ncc2c1)c1ccc(Br)cc1 [II-13] | < 10
CC(C)(C)c1ccccc1NC(=NC(=O)c1ccc(F)c(F)c1)Nc1ccc2[nH]c(=O)oc2c1 [Compound I-98] | < 10
O=C(N=C(Nc1ccc2ccccc2c1)Nc1ccc2[nH]c(=O)[nH]c2c1)c1ccc(F)cc1 [Compound I-12] | > 10
O=C(N=C(Nc1ccc(-c2ccccc2)cc1)Nc1ccc2[nH]c(=O)oc2c1)c1cccc(Cl)c1 [Compound I-31] | < 10
O=C(N=C(Nc1ccc2ccccc2c1)Nc1ccc2[nH]ncc2c1)c1cccc(Cl)c1 [II-11] | < 10
O=C(N=C(Nc1ccc2[nH]c(=O)oc2c1)Nc1ccccc1C(F)(F)F)c1ccc(Cl)cc1 [Compound I-18] | < 10
O=C(N=C(Nc1ccc2ccccc2c1)Nc1ccc2[nH]c(=O)oc2c1)c1ccc(Cl)cc1 [Compound I-26] | < 10
CC(C)(C)c1ccccc1NC(=NC(=O)c1cccc(C(F)(F)F)c1)Nc1ccc2[nH]c(=O)oc2c1 [Compound I-95] | < 10
O=C(N=C(NCCc1c[nH]cn1)Nc1ccccc1C(F)(F)F)c1ccc(F)cc1 [III-3] | > 10
O=C(N=C(Nc1ccc2ccccc2c1)Nc1ccc2[nH]c(=O)oc2c1)c1cccc(Cl)c1 [Compound I-27] | < 10
N#Cc1cccc(C(=O)N=C(Nc2ccc(C3CC3)cc2)Nc2ccc3[nH]c(=O)oc3c2)c1 [Compound I-138] | < 10
O=C(N=C(Nc1ccc(-c2ccccc2)cc1)Nc1ccc2[nH]ncc2c1)c1ccc(Cl)cc1 [II-14] | < 10
O=C(N=C(Nc1ccc2ccccc2c1)Nc1ccc2[nH]ncc2c1)c1ccc(Br)cc1 [II-9] | < 10
O=C(N=C(Nc1ccc2[nH]c(=O)oc2c1)Nc1ccccc1C(F)(F)F)c1ccc(C(F)(F)F)cc1 [Compound I-92] | < 10
CC(C)(C)c1ccccc1NC(=NC(=O)c1ccc(Cl)cc1)Nc1ccc2[nH]c(=O)oc2c1 [Compound I-22] | < 10
O=C(N=C(Nc1ccc2[nH]c(=O)oc2c1)Nc1ccccc1C(F)(F)F)c1ccc(F)cc1 [Compound I-20] | > 10
CC(C)(C)c1ccccc1NC(=NC(=O)c1cccc(Cl)c1)Nc1ccc2[nH]c(=O)oc2c1 [Compound I-23] | < 10
N#Cc1cccc(C(=O)N=C(Nc2cccc(C3CC3)c2)Nc2ccc3oc(=O)[nH]c3c2)c1 [Compound I-136] | < 10
O=C(N=C(Nc1ccc2ccccc2c1)Nc1ccc2[nH]c(=O)oc2c1)c1ccc(F)cc1 [Compound I-28] | < 10
N#Cc1cccc(C(=O)N=C(Nc2ccc3[nH]c(=O)oc3c2)Nc2ccccc2C2CC2)c1 [Compound I-112] | < 10
CC(C)(C)c1ccccc1NC(=NC(=O)c1ccc(C(F)(F)F)cc1)Nc1ccc2[nH]c(=O)oc2c1 [Compound I-86] | < 10
CC(C)(C)c1ccccc1NC(=NC(=O)c1ccc(C(F)(F)F)cc1F)Nc1ccc2[nH]c(=O)oc2c1 [Compound I-107] | < 10
CC(C)(C)c1ccccc1NC(=NC(=O)c1cccc(Cl)c1)NCCc1c[nH]cn1 [III-6] | < 10
O=C(N=C(Nc1ccc(Cl)cc1)Nc1ccc2[nH]ncc2c1)c1ccc(Cl)cc1 [II-22] | < 10
O=C(N=C(Nc1cccc(C(F)(F)F)c1)Nc1ccc2[nH]c(=O)oc2c1)c1ccc(Cl)cc1 [Compound I-89] | < 10
O=C(N=C(Nc1cccc(C(F)(F)F)c1)Nc1ccc2[nH]c(=O)oc2c1)c1ccc(C(F)(F)F)cc1 [Compound I-85] | < 10

Source: patent publication US8497307B2, “Aryl guanidine F1F0-ATPase inhibitors and related methods” (The Regents of the University of Michigan, priority 2008, dated 2013)
